Measured values taken from ChEMBL document CHEMBL2412960, “Inhibition of Mycobacterium tuberculosis strains H37Rv and MDR MS-115 by a new set of C5 modified pyrimidine nucleosides” (Bioorg Med Chem, 2013).
≈ marks a conversion by molar mass, not a printed value. Calls of active or inactive are those of the source. The rule behind the calls is not given here.

Columns and labels:
[1] = system: Mycobacterium tuberculosis; assay: Bacteriostatic activity against Mycobacterium tuberculosis H37Rv assessed as growth inhibition; type: functional
[2] = system: Mycobacterium tuberculosis; assay: Bacteriostatic activity against Mycobacterium tuberculosis H37Rv assessed as growth inhibition at 10 ug/mL relative to control; type: functional; conditions: read-out: GI
[3] = system: Mycobacterium tuberculosis; assay: Bacteriostatic activity against Mycobacterium tuberculosis H37Rv assessed as growth inhibition at 50 ug/mL relative to control; type: functional; conditions: read-out: GI
[4] = system: Mycobacterium tuberculosis; assay: Bacteriostatic activity against Mycobacterium tuberculosis H37Rv assessed as growth inhibition at 100 ug/mL relative to control; type: functional; conditions: read-out: GI
[5] = system: Mycobacterium tuberculosis; assay: Bacteriostatic activity against Mycobacterium tuberculosis H37Rv assessed as growth inhibition at 20 ug/mL relative to control; type: functional; conditions: read-out: GI
[6] = Cytotoxicity against human A549 cells after 72 hrs by MTT assay; type: cell-based; conditions: read-out: CD50
[7] = Cytotoxicity against human Jurkat cells after 72 hrs by MTT assay; type: cell-based; conditions: read-out: CD50
[8] = Cytotoxicity against African green monkey Vero cells after 72 hrs by MTT assay; type: cell-based; conditions: chlorocebus sabaeus, read-out: CD50
[9] = system: Mycobacterium tuberculosis; assay: Bacteriostatic activity against Mycobacterium tuberculosis H37Rv assessed as growth inhibition at 200 ug/mL relative to control; type: functional; conditions: read-out: GI
[10] = system: Mycobacterium tuberculosis; assay: Bacteriostatic activity against Mycobacterium tuberculosis H37Rv assessed as growth inhibition at 1 ug/mL relative to control; type: functional; conditions: read-out: GI
[11] = system: Mycobacterium tuberculosis; assay: Bacteriostatic activity against Mycobacterium tuberculosis H37Rv assessed as growth inhibition at 5 ug/mL relative to control; type: functional; conditions: read-out: GI
[12] = system: Mycobacterium tuberculosis; assay: Bacteriostatic activity against Mycobacterium tuberculosis H37Rv assessed as growth inhibition at 40 ug/mL relative to control; type: functional; conditions: read-out: GI
Saccharomyces cerevisiae = assay: Antifungal activity against Saccharomyces cerevisiae RIA 259; type: functional, organism-based
Aspergillus niger = assay: Antifungal activity against Aspergillus niger INA 00760; type: functional, organism-based
Pseudomonas aeruginosa = assay: Antibacterial activity against Pseudomonas aeruginosa ATCC 27853; type: functional, organism-based
Escherichia coli = assay: Antibacterial activity against Escherichia coli ATCC 25922; type: functional, organism-based
Staphylococcus aureus [13] = assay: Antibacterial activity against methicillin-resistant Staphylococcus aureus INA 00761; type: functional, organism-based
[14] = system: Leuconostoc mesenteroides; assay: Antibacterial activity against vancomycin-resistant Leuconostoc mesenteroides VKPM B-4177; type: functional
Staphylococcus aureus [15] = assay: Antibacterial activity against methicillin-susceptible Staphylococcus aureus FDA 209P; type: functional, organism-based
Micrococcus luteus = assay: Antibacterial activity against Micrococcus luteus NCTC 8340; type: functional, organism-based
Bacillus mycoides = assay: Antibacterial activity against Bacillus mycoides 537; type: functional, organism-based
Bacillus pumilus = assay: Antibacterial activity against Bacillus pumilus NCTC 8241; type: functional, organism-based
Bacillus subtilis = assay: Antibacterial activity against Bacillus subtilis ATCC 6633; type: functional, organism-based
[16] = system: Leuconostoc mesenteroides; assay: Antibacterial activity against vancomycin-resistant Leuconostoc mesenteroides VKPM B-4177 at 95 ug/mL; type: functional

Compound | MIC99 [1] [µg/mL] | inhibition of growth at 10 µg/mL [2] [%] | inhibition of growth at 50 µg/mL [3] [%] | inhibition of growth at 20 µg/mL [5] [%] | CC50 at 72 h [6] [µg/mL] | CC50 at 72 h [7] [µg/mL] | CC50 at 72 h [8] [µg/mL] | inhibition of growth at 5 µg/mL [11] [%] | Activity (Saccharomyces cerevisiae) | Activity (Aspergillus niger) | Activity (Pseudomonas aeruginosa) | Activity (Escherichia coli) | Activity (Staphylococcus aureus [13]) | Activity [14] | Activity (Staphylococcus aureus [15]) | Activity (Micrococcus luteus) | Activity (Bacillus mycoides) | Activity (Bacillus pumilus) | Activity (Bacillus subtilis) | also measured
CCCCCCCCCCCCOCc1cn([C@H]2C[C@H](O)[C@@H](CN)O2)c(=O)[nH]c1=O | 20 (≈ 47 µM) | 50 | 100 | 100 | 8 (≈ 18.8 µM) | 7 (≈ 16.4 µM) | 14 (≈ 32.9 µM) | – | – | – | – | – | – | – | – | – | – | – | – | inhibition of growth at 100 µg/mL [4]: 100%
CCCCCCCCCCCCCCOCc1cn([C@H]2C[C@H](O)[C@@H](CO)O2)c(=O)[nH]c1=O | 200 (≈ 440 µM) | – | – | – | – | – | > 100 | – | – | – | – | – | – | – | – | – | – | – | – | inhibition of growth at 200 µg/mL [9]: 100%
CO[C@H]1/C=C/O[C@@]2(C)Oc3c(C)c(O)c4c(O)c(c(/C=N/N5CCN(C)CC5)c(O)c4c3C2=O)NC(=O)/C(C)=C\C=C\[C@H](C)[C@H](O)[C@@H](C)[C@@H](O)[C@@H](C)[C@H](OC(C)=O)[C@@H]1C [RIFAMPIN] | 1 (≈ 1.22 µM) | – | – | – | – | – | > 500 | – | – | – | – | – | – | – | – | – | – | – | – | inhibition of growth at 1 µg/mL [10]: 100%
NNC(=O)c1ccncc1 [ISONIAZID] | 0.1 (≈ 0.729 µM) | – | – | – | – | – | – | – | – | – | – | – | – | – | – | – | – | – | – | –
CCCCCCCCCCCCOCc1cn([C@H]2C[C@H](O)[C@@H](CI)O2)c(=O)[nH]c1=O | 10 (≈ 18.6 µM) | 100 | 100 | 100 | > 100 | > 100 | 70 (≈ 130 µM) | 90 | – | – | – | – | – | – | – | – | – | – | – | –
CCCCCCCCCCCCc1cn(Cc2cn([C@H]3C[C@H](O)[C@@H](CO)O3)c(=O)nc2N)nn1 | 10 (≈ 21 µM) | 99 | – | 100 | 100 (≈ 210 µM) | 100 (≈ 210 µM) | > 100 | 75 | – | – | – | – | – | – | – | – | – | – | – | –
CCCCCCCCCCCCOCc1cn([C@H]2C[C@H](N(CC)CC)[C@@H](CO)O2)c(=O)[nH]c1=O | 20 (≈ 41.5 µM) | 75 | 100 | 99 | 5 (≈ 10.4 µM) | 5 (≈ 10.4 µM) | 7.5 (≈ 15.6 µM) | – | – | – | – | – | – | – | – | – | – | – | – | inhibition of growth at 100 µg/mL [4]: 100%
CCCCCCCCc1cn(Cc2cn([C@H]3C[C@H](O)[C@@H](CO)O3)c(=O)nc2N)nn1 | 40 (≈ 95.1 µM) | – | – | 90 | > 100 | > 100 | > 100 | – | – | – | – | – | – | – | – | – | – | – | – | inhibition of growth at 40 µg/mL [12]: 100%
CCCCCCCCCCc1cn(Cc2cn([C@H]3C[C@H](O)[C@@H](CO)O3)c(=O)[nH]c2=O)nn1 | 10 (≈ 22.2 µM) | 100 | – | – | 100 (≈ 222 µM) | 100 (≈ 222 µM) | > 100 | 90 | inactive | inactive | inactive | inactive | inactive | inactive | inactive | inactive | inactive | inactive | inactive | –
CCCCCCCCCCCCOCc1cn([C@H]2C[C@H](O)[C@@H](CN=[N+]=[N-])O2)c(=O)[nH]c1=O | 10 (≈ 22.1 µM) | 99 | 100 | 100 | 20 (≈ 44.3 µM) | 18 (≈ 39.9 µM) | > 100 | 75 | – | – | – | – | – | – | – | – | – | – | – | inhibition of growth at 100 µg/mL [4]: 100%
CCCCCCCCCCc1cn(Cc2cn([C@H]3C[C@H](O)[C@@H](CO)O3)c(=O)nc2N)nn1 | 40 (≈ 89.2 µM) | – | – | 90 | 100 (≈ 223 µM) | 100 (≈ 223 µM) | > 100 | – | – | – | – | – | – | – | – | – | – | – | – | inhibition of growth at 40 µg/mL [12]: 100%
CCCCCCCCc1cn(Cc2cn([C@H]3C[C@H](O)[C@@H](CO)O3)c(=O)[nH]c2=O)nn1 | 20 (≈ 47.4 µM) | 90 | – | 99 | > 100 | > 100 | > 100 | – | inactive | inactive | inactive | inactive | inactive | inactive | inactive | inactive | inactive | inactive | inactive | inhibition of growth at 40 µg/mL [12]: 100%
CCCCCCCCCCCCOCc1cn([C@H]2C[C@H](O)[C@@H](CO)O2)c(=O)nc1N | 200 (≈ 470 µM) | – | – | – | 45 (≈ 106 µM) | 37 (≈ 86.9 µM) | > 100 | – | – | – | – | – | – | – | – | – | – | – | – | inhibition of growth at 200 µg/mL [9]: 100%
CCCCCCCCCCCCOCc1cn([C@H]2C[C@H](N)[C@@H](CO)O2)c(=O)[nH]c1=O | > 20 | 25 | – | 90 | 8 (≈ 18.8 µM) | 7 (≈ 16.4 µM) | 50 (≈ 117 µM) | – | – | – | – | – | – | – | – | – | – | – | – | –
CCCCCCCCCCCCOCc1cn([C@H]2C[C@H](NCC)[C@@H](CO)O2)c(=O)[nH]c1=O | 10 (≈ 22 µM) | 99 | 100 | 100 | 5 (≈ 11 µM) | 5 (≈ 11 µM) | 13 (≈ 28.7 µM) | 75 | – | – | – | – | – | – | – | – | – | – | – | inhibition of growth at 100 µg/mL [4]: 100%
CCCCCCCCCCOCc1cn([C@H]2C[C@H](O)[C@@H](CO)O2)c(=O)[nH]c1=O | 40 (≈ 100 µM) | – | – | – | – | – | > 100 | – | inactive | inactive | inactive | inactive | inactive | inactive | inactive | inactive | inactive | inactive | inactive | inhibition of growth at 40 µg/mL [12]: 99%
CCCCCCCCCCCCOCc1cn([C@H]2C[C@H](O)[C@@H](CO)O2)c(=O)[nH]c1=O | 20 (≈ 46.9 µM) | 90 | 100 | 100 | 100 (≈ 234 µM) | 100 (≈ 234 µM) | > 100 | 25 | inactive | inactive | inactive | inactive | inactive | inactive | inactive | inactive | inactive | inactive | inactive | inhibition of growth at 100 µg/mL [4]: 100%
CCCCCCCCCCCCc1cn(Cc2cn([C@H]3C[C@H](O)[C@@H](CO)O3)c(=O)[nH]c2=O)nn1 | 10 (≈ 20.9 µM) | 99 | – | 99 | > 100 | > 100 | > 100 | 90 | inactive | inactive | inactive | inactive | inactive | inactive | inactive | inactive | inactive | inactive | inactive | inhibition of growth at 40 µg/mL [12]: 100%
CCCCCCCCCCCCOCc1cn([C@@H]2C[C@H](O)[C@@H](CO)O2)c(=O)[nH]c1=O | 20 (≈ 46.9 µM) | 90 | 100 | 99 | 45 (≈ 105 µM) | 40 (≈ 93.8 µM) | > 100 | – | inactive | inactive | inactive | inactive | inactive | inactive | inactive | inactive | inactive | inactive | inactive | Activity [16]: Active; inhibition of growth at 100 µg/mL [4]: 100%
CCCCCCCCCCCOCc1cn([C@H]2C[C@H](O)[C@@H](CO)O2)c(=O)[nH]c1=O | 20 (≈ 48.5 µM) | – | – | 99 | 90 (≈ 218 µM) | 70 (≈ 170 µM) | > 100 | – | inactive | inactive | inactive | inactive | inactive | inactive | inactive | inactive | inactive | inactive | inactive | inhibition of growth at 40 µg/mL [12]: 100%
CC1COc2c(N3CCN(C)CC3)c(F)cc3c(=O)c(C(=O)O)cn1c23 (stereo not given) [OFLOXACIN] | 2 (≈ 5.53 µM) | – | – | – | – | – | – | – | – | – | – | – | – | – | – | – | – | – | – | –
CCCCCCCCCCCCOCc1cn([C@H]2C[C@H](N=[N+]=[N-])[C@@H](CO)O2)c(=O)[nH]c1=O | 200 (≈ 443 µM) | – | – | – | 10 (≈ 22.1 µM) | 8 (≈ 17.7 µM) | 15 (≈ 33.2 µM) | – | – | – | – | – | – | – | – | – | – | – | – | inhibition of growth at 200 µg/mL [9]: 100%
